The source of these data is US8829007B2 (priority 2009, dated 2014).

The first assay has as its system influenza A virus (A/PR/8/34). Put plainly: microbe, parasite or virus in culture. The assay is classed as cell-based. To be noted: Influenza A virus, PR/8, MDCK, MDCK cells infected with A/PR/8/34, cell protection (CPE); read-out: IC50 (mean all).
For the molecule `O=C(c1ccc2c(c1)OCO2)N1CCC[C@H](CNc2nc(-c3c[nH]c4ncc(Cl)cc34)ncc2F)C1` [Compound 103, (R)-benzo[d][1,3]dioxol-5-yl(3-((2-(5-chloro-1H-pyrrolo[2,3-b]pyridin-3-yl)-5-fluoropyrimidin-4-ylamino)methyl)piperidin-1-yl)methanone], the IC50 was less than 5 µM.

In the case of `CCC(=O)N1CCCC[C@H]1CNc1nc(-c2c[nH]c3ncccc23)ncc1F` [Compound 257, (S)-1-(2-((5-fluoro-2-(1H-pyrrolo[2,3-b]pyridin-3-yl)pyrimidin-4-ylamino)methyl)piperidin-1-yl)propan-1-one], the IC50 lay in the range of 5 to 20 µM.

Turning to `C[C@@H](CO)CN1CCC[C@@H](CNc2nc(-c3c[nH]c4ncc(Cl)cc34)ncc2F)C1` [Compound 141, (R)-3-((S)-3-((2-(5-chloro-1H-pyrrolo[2,3-b]pyridin-3-yl)-5-fluoropyrimidin-4-ylamino)methyl)piperidin-1-yl)-2-methylpropan-1-ol], the concentration for half-maximal inhibition (IC50) is more than 20 µM.

With `CCOc1ccccc1C(=O)N1CCC[C@H](CNc2nc(-c3c[nH]c4ncc(Cl)cc34)ncc2F)C1` [Compound 158, (R)-(3-((2-(5-chloro-1H-pyrrolo[2,3-b]pyridin-3-yl)-5-fluoropyrimidin-4-ylamino)methyl)piperidin-1-yl)(2-ethoxyphenyl)methanone], the IC50 is less than 5 µM.

For `COCCOC(=O)N1CCC[C@@H](CNc2nc(-c3c[nH]c4ncc(Cl)cc34)ncc2F)C1` [Compound 24, (S)-2-methoxyethyl 3-((2-(5-chloro-1H-pyrrolo[2,3-b]pyridin-3-yl)-5-fluoropyrimidin-4-ylamino)methyl)piperidine-1-carboxylate], the IC50 was more than 20 µM.

On to `CC(C)C(=O)N1CCC[C@@H](CNc2nc(-c3c[nH]c4ncc(Cl)cc34)ncc2F)C1` [Compound 34, (S)-1-(3-((2-(5-chloro-1H-pyrrolo[2,3-b]pyridin-3-yl)-5-fluoropyrimidin-4-ylamino)methyl)piperidin-1-yl)-2-methylpropan-1-one], for which the IC50 is less than 5 µM.

For the molecule `CC(=O)N1CCCC[C@H]1CNc1nc(-c2c[nH]c3ncccc23)ncc1F` [Compound 256, (S)-1-(2-((5-fluoro-2-(1H-pyrrolo[2,3-b]pyridin-3-yl)pyrimidin-4-ylamino)methyl)piperidin-1-yl)ethanone], the IC50 fell in the range of 5 to 20 µM.

With `CC(C)(C)CC(=O)N1CCC[C@@H](CNc2nc(-c3c[nH]c4ncc(Cl)cc34)ncc2F)C1` [Compound 42, (S)-1-(3-((2-(5-chloro-1H-pyrrolo[2,3-b]pyridin-3-yl)-5-fluoropyrimidin-4-ylamino)methyl)piperidin-1-yl)-3,3-dimethylbutan-1-one], the 50% inhibitory concentration (IC50) is more than 20 µM.

Staying with this assay, now noted: Influenza A virus, PR/8, MDCK, MDCK cells infected with A/PR/8/34; survival of infected cells; class symbols; read-out: IC50 (mean all).
In the case of `CC(=O)N1CCC[C@H](Nc2ccnc(-c3c[nH]c4ncc(Cl)cc34)n2)C1` [Compound 485], the IC50 lay within 5 to 20 µM.

For `CCN(CC)C(=O)[C@H]1CCCC[C@@H]1Nc1nc(-c2c[nH]c3ncc(Cl)cc23)ncc1F` [Compound 520], the IC50 was more than 20 µM.

With `O=C(OCC1CCOC1)N1CC[C@H](Nc2nc(-c3c[nH]c4ncc(Cl)cc34)ncc2F)C1` (some centres unmarked) [Compound 484], the IC50 was 5 to 20 µM.

For `CS(=O)(=O)N1CCCC(Nc2nc(-c3c[nH]c4ncc(Cl)cc34)ncc2F)CC1` (centres unmarked) [Compound 496, N-(2-(5-chloro-1H-pyrrolo[2,3-b]pyridin-3-yl)-5-fluoropyrimidin-4-yl)-1-(methylsulfonyl)azepan-4-amine], the IC50 fell in the range of 5 to 20 µM.

Regarding `CCN(CC)C(=O)[C@@H]1CCCC[C@@H]1Nc1nc(-c2c[nH]c3ncc(Cl)cc23)ncc1F` [Compound 518, (1R,2S)-2-(2-(5-chloro-1H-pyrrolo[2,3-b]pyridin-3-yl)-5-fluoropyrimidin-4-ylamino)-N,N-diethylcyclohexanecarboxamide], the IC50 is more than 20 µM.

The assay is the same for the next values; noted with them: Influenza A virus, PR/8, MDCK, mean all; A/PR/8/34 infected MDCK cells, CPE assay; read-out: IC50.
For the molecule `O=C1NCCC1Nc1nc(-c2c[nH]c3ncc(Cl)cc23)ncc1F` (centres unmarked) [Compound 380], the half-inhibitory concentration (IC50) fell in the range of 5 to 20 µM.

As for `CC(C)(C)C(=O)N1CCC[C@H](Nc2nc(-c3c[nH]c4ncc(Cl)cc34)ncc2F)C1` [Compound 437], the IC50 is more than 20 µM.

Turning to `O=C(C1CNCCO1)N1CC[C@H](Nc2nc(-c3c[nH]c4ncc(Cl)cc34)ncc2F)C1` (some centres unmarked) [Compound 483], the IC50 was more than 20 µM.

`CCCS(=O)(=O)N[C@@H]1CCCC[C@H]1Nc1nc(-c2c[nH]c3ncc(Cl)cc23)ncc1F` [Compound 354, N-[(1R,2R)-2-[[2-(5-chloro-1H-pyrrolo[2,3-b]pyridin-3-yl)-5-fluoro-pyrimidin-4-yl]amino]cyclohexyl]propane-1-sulfonamide]: the IC50 was more than 20 µM.

As for `CC1(C(=O)N2CC[C@@H](Nc3nc(-c4c[nH]c5ncc(Cl)cc45)ncc3F)C2)COC1` [Compound 473], the IC50 is 5 to 20 µM.

On to `CNC(=O)N1CCCC[C@@H]1CNc1nc(-c2c[nH]c3ncccc23)ncc1F` [Compound 374, (R)-2-((5-fluoro-2-(1H-pyrrolo[2,3-b]pyridin-3-yl)pyrimidin-4-ylamino)methyl)-N-methylpiperidine-1-carboxamide], for which the IC50 was more than 20 µM.

`CCCS(=O)(=O)N[C@@H]1CCCC[C@H]1Nc1nc(-c2c[nH]c3ncccc23)ncc1F` [Compound 362, N-[(1R,2R)-2-[[5-fluoro-2-(1H-pyrrolo[2,3-b]pyridin-3-yl)pyrimidin-4-yl]amino]cyclohexyl]propane-1-sulfonamide]: the IC50 was more than 20 µM.

In the case of `CC(=O)N1CC[C@H](Nc2nc(-c3c[nH]c4ncc(Cl)cc34)ncc2F)C1` [Compound 480], the IC50 was less than 5 µM.

`CC(C)OC(=O)N1CCOC(CNc2nc(-c3c[nH]c4ncc(Cl)cc34)ncc2F)C1` (centres unmarked) [Compound 447, Isopropyl 2-((2-(5-chloro-1H-pyrrolo[2,3-b]pyridin-3-yl)-5-fluoropyrimidin-4-ylamino)methyl)morpholine-4-carboxylate]: the IC50 is more than 20 µM.

For `CC(C)S(=O)(=O)N1CCOC(CNc2nc(-c3c[nH]c4ncc(Cl)cc34)ncc2F)C1` (centres unmarked) [Compound 448, 2-(5-chloro-1H-pyrrolo[2,3-b]pyridin-3-yl)-5-fluoro-N-((4-(isopropylsulfonyl)morpholin-2-yl)methyl)pyrimidin-4-amine], the IC50 is more than 20 µM.

In the case of `O=C(C1CC1)N1CCC[C@H](Nc2nc(-c3c[nH]c4ncc(Cl)cc34)ncc2F)C1` [Compound 451], the IC50 lay within 5 to 20 µM.

For the molecule `O=S(=O)(C1CCCC1)N1CC[C@H](Nc2nc(-c3c[nH]c4ncc(Cl)cc34)ncc2F)C1` [Compound 403, (S)-2-(5-chloro-1H-pyrrolo[2,3-b]pyridin-3-yl)-N-(1-(cyclopentylsulfonyl)pyrrolidin-3-yl)-5-fluoropyrimidin-4-amine], the IC50 was 5 to 20 µM.

Turning to `O=S(=O)(CC1CCCC1)N1CC[C@H](Nc2nc(-c3c[nH]c4ncc(Cl)cc34)ncc2F)C1` [Compound 479, (S)-2-(5-chloro-1H-pyrrolo[2,3-b]pyridin-3-yl)-N-(1-(cyclopentylmethylsulfonyl)pyrrolidin-3-yl)-5-fluoropyrimidin-4-amine], the IC50 was more than 20 µM.

As for `CC(C)C(=O)N1CCC[C@H](Nc2nc(-c3c[nH]c4ncc(Cl)cc34)ncc2F)C1` [Compound 436], the IC50 was less than 5 µM.

Take `COC(=O)N[C@@H]1CCCC[C@@H]1Nc1nc(-c2c[nH]c3ncc(Cl)cc23)ncc1F` (relative stereo) [Compound 432, Methyl N-[cis-2-[[2-(5-chloro-1H-pyrrolo[2,3-b]pyridin-3-yl)-5-fluoro-pyrimidin-4-yl]amino]cyclohexyl]carbamate]: the IC50 is more than 20 µM.

Turning to `O=C(N[C@@H]1CCCC[C@@H]1Nc1nc(-c2c[nH]c3ncc(Cl)cc23)ncc1F)C1CCCC1` (relative stereo) [Compound 335, N-[cis-2-[[2-(5-chloro-1H-pyrrolo[2,3-b]pyridin-3-yl)-5-fluoro-pyrimidin-4-yl]amino]cyclohexyl]cyclopentanecarboxamide], the IC50 was more than 20 µM.

The same assay, now with this note: Influenza A virus, PR/8, MDCK; read-out: IC50.
With `CCCS(=O)(=O)N1CC(Nc2nc(-c3c[nH]c4ncc(Cl)cc34)ncc2F)C1` [Compound 423], the IC50 was more than 20 µM.

The same assay, now with this note: Influenza A virus, PR/8, MDCK; read-out: IC50 (mean all).
For `O=C(Oc1cccc(C(F)(F)F)c1)N1CCC[C@H](CNc2nc(-c3c[nH]c4ncc(Cl)cc34)ncc2F)C1` [Compound 72, (R)-3-(trifluoromethyl)phenyl 3-((2-(5-chloro-1H-pyrrolo[2,3-b]pyridin-3-yl)-5-fluoropyrimidin-4-ylamino)methyl)piperidine-1-carboxylate], the IC50 fell in the range of 5 to 20 µM.

For `COC(=O)/C=C/CN1CCC[C@@H](CNc2nc(-c3c[nH]c4ncc(Cl)cc34)ncc2F)C1` [Compound 138, (S,E)-methyl 4-(3-((2-(5-chloro-1H-pyrrolo[2,3-b]pyridin-3-yl)-5-fluoropyrimidin-4-ylamino)methyl)piperidin-1-yl)but-2-enoate], the half-maximal inhibitory concentration (IC50) is more than 20 µM.

Staying with this assay, now noted: MDCK cells infected with A/PR/8/34, cell protection (CPE); read-out: IC50 (mean all).
Turning to `NC1CCCCC1Nc1nc(-c2c[nH]c3ncccc23)ncc1F` (stereo not drawn) [Compound 206, N-[5-fluoro-2-(1H-pyrrolo[5,4-b]pyridin-3-yl)pyrimidin-4-yl]cyclohexane-cis-1,2-diamine], the IC50 is less than 5 µM.

The assay is the same for the next values; noted with them: MDCK cells infected with A/PR/8/34; survival of infected cells; class symbols; read-out: IC50 (mean all).
As for `COC(=O)CCC(=O)N1CCCC(CNc2ccnc(-c3c[nH]c4ncc(Cl)cc34)n2)C1` (centres unmarked) [Compound 492], the 50% inhibitory concentration (IC50) lay within 5 to 20 µM.

For the molecule `CS(=O)(=O)N1CC(Nc2nc(-c3c[nH]c4ncc(Cl)cc34)ncc2F)C1` [Compound 508], the IC50 was more than 20 µM.

The assay is the same for the next values; noted with them: mean all; A/PR/8/34 infected MDCK cells, CPE assay; read-out: IC50.
As to `CCS(=O)(=O)N1CCC(Nc2nc(-c3c[nH]c4ncc(Cl)cc34)ncc2F)C1` (centres unmarked) [Compound 407], the half-maximal inhibitory concentration (IC50) was more than 20 µM.

Staying with this assay, now noted: read-out: IC50.
With `O=C(C1CCOC1)N1CC[C@H](Nc2nc(-c3c[nH]c4ncc(Cl)cc34)ncc2F)C1` (some centres unmarked) [Compound 478], the IC50 fell in the range of 5 to 20 µM.

Turning to `COP(=O)(OC)[C@]1(O)CCC[C@H](Nc2nc(-c3c[nH]c4ncc(Cl)cc34)ncc2F)C1` [Compound 742], the IC50 is less than 5 µM.

By IC50 is commonly meant the concentration that gives 50% inhibition.
